In ChEMBL document CHEMBL6083215, “Structure elucidation, absolute configuration, and biological evaluation of cyclic peroxides from the sponge Plakinastrella sp” (2024):

Columns and labels:
Format in all cases: functional
NCI/ADR-RES = experiment: Growth inhibition of human NCI-ADR-RES cells
EKVX = experiment: Growth inhibition of human EKVX cells
DU-145 = experiment: Growth inhibition of human DU-145 cells
A549 = experiment: Growth inhibition of human A549 cells
BT-549 = experiment: Growth inhibition of human BT-549 cells
NCI-H23 = experiment: Growth inhibition of human NCI-H23 cells
NCI-H322M = experiment: Growth inhibition of human NCI-H322M cells
RPMI-8226 = experiment: Growth inhibition of human RPMI-8226 cells
NCI-H226 = experiment: Growth inhibition of human NCI-H226 cells
SF-295 = experiment: Growth inhibition of human SF-295 cells
UO-31 = experiment: Growth inhibition of human UO-31 cells
Malme-3M = experiment: Growth inhibition of human Malme-3M cells
SN12C = experiment: Growth inhibition of human SN12C cells
MDA-MB-231 = experiment: Growth inhibition of human MDA-MB-231 cells
M14 = experiment: Growth inhibition of human M14 cells
K562 = experiment: Growth inhibition of human K562 cells
OVCAR-8 = experiment: Growth inhibition of human OVCAR-8 cells
A498 = experiment: Growth inhibition of human A498 cells
HT-29 = experiment: Growth inhibition of human HT-29 cells
COLO 205 = experiment: Growth inhibition of human COLO 205 cells
OVCAR-4 = experiment: Growth inhibition of human OVCAR-4 cells
CAKI-1 = experiment: Growth inhibition of human CAKI-1 cells
SR = experiment: Growth inhibition of human SR cells
CCRF-CEM = experiment: Growth inhibition of human CCRF-CEM cells
NCI-H460 = experiment: Growth inhibition of human NCI-H460 cells
U-251 = experiment: Growth inhibition of human U-251 cells
MDA-MB-468 = experiment: Growth inhibition of human MDA-MB-468 cells
SNB-19 = experiment: Growth inhibition of human SNB-19 cells
786-0 = experiment: Growth inhibition of human 786-0 cells
IGROV-1 = experiment: Growth inhibition of human IGROV-1 cells
SW-620 = experiment: Growth inhibition of human SW620 cells
HOP-62 = experiment: Growth inhibition of human HOP-62 cells
HCT-116 = experiment: Growth inhibition of human HCT-116 cells
MDA-MB-435 = experiment: Growth inhibition of human MDA-MB-435 cells
OVCAR-5 = experiment: Growth inhibition of human OVCAR-5 cells
SK-MEL-5 = experiment: Growth inhibition of human SK-MEL-5 cells
SNB-75 = experiment: Growth inhibition of human SNB-75 cells
T47D = experiment: Growth inhibition of human T47D cells
PC-3 = experiment: Growth inhibition of human PC-3 cells
SK-OV-3 = experiment: Growth inhibition of human SK-OV-3 cells
Hs-578T = experiment: Growth inhibition of human HS 578T cells
SK-MEL-2 = experiment: Growth inhibition of human SK-MEL-2 cells
LOX IMVI = experiment: Growth inhibition of human LOX IMVI cells
ACHN = experiment: Growth inhibition of human ACHN cells
HL-60(TB) = experiment: Growth inhibition of human HL-60(TB) cells
KM12 = experiment: Growth inhibition of human KM12 cells
MOLT-4 = experiment: Growth inhibition of human MOLT-4 cells
OVCAR-3 = experiment: Growth inhibition of human OVCAR-3 cells
HOP-92 = experiment: Growth inhibition of human HOP-92 cells
RXF 393 = experiment: Growth inhibition of human RXF 393 cells
NCI-H522 = experiment: Growth inhibition of human NCI-H522 cells
HCC 2998 = experiment: Growth inhibition of human HCC 2998 cells
SK-MEL-28 = experiment: Growth inhibition of human SK-MEL-28 cells
SF-539 = experiment: Growth inhibition of human SF-539 cells
HCT-15 = experiment: Growth inhibition of human HCT-15 cells
TK-10 = experiment: Growth inhibition of human TK-10 cells
SF-268 = experiment: Growth inhibition of human SF-268 cells
UACC-257 = experiment: Growth inhibition of human UACC-257 cells
MCF7 = experiment: Growth inhibition of human MCF7 cells
UACC-62 = experiment: Growth inhibition of human UACC-62 cells

Measured: GI50

CCCCCCCC/C=C(/C)C[C@]1(C)C[C@H](C)[C@@H](CC(=O)O)OO1
10 nM: LOX IMVI
90 nM: HL-60(TB)
60 nM: UO-31
600 nM: all other assays above
